Results as given in ChEMBL document CHEMBL1143118, “6-Acetyl-7,7-dimethyl-5,6,7,8-tetrahydropterin is an activator of nitric oxide synthases” (Bioorg Med Chem Lett, 2008).
One block for each compound: values may come before it. Activity calls are given as the source filed them. The calls are words filed in the database; no cut-off is given here.

What was measured:
Aortic ring [1] = experiment: Relaxation of phenyphrine-induced constriction in rat aortic rings depleted with tetrahydrobiopterin; format: functional, tissue-based; conditions: Aorta
[2] = molecular target: Nitric oxide synthase 1 (Homo sapiens) (UniProt P29475); experiment: Activity of tetrahydrobiopterin free nNOS expressed in Escherichia coli at 1 to 100 uM
Chain of Nitric oxide synthase 1 (Homo sapiens) (P29475 whole entry): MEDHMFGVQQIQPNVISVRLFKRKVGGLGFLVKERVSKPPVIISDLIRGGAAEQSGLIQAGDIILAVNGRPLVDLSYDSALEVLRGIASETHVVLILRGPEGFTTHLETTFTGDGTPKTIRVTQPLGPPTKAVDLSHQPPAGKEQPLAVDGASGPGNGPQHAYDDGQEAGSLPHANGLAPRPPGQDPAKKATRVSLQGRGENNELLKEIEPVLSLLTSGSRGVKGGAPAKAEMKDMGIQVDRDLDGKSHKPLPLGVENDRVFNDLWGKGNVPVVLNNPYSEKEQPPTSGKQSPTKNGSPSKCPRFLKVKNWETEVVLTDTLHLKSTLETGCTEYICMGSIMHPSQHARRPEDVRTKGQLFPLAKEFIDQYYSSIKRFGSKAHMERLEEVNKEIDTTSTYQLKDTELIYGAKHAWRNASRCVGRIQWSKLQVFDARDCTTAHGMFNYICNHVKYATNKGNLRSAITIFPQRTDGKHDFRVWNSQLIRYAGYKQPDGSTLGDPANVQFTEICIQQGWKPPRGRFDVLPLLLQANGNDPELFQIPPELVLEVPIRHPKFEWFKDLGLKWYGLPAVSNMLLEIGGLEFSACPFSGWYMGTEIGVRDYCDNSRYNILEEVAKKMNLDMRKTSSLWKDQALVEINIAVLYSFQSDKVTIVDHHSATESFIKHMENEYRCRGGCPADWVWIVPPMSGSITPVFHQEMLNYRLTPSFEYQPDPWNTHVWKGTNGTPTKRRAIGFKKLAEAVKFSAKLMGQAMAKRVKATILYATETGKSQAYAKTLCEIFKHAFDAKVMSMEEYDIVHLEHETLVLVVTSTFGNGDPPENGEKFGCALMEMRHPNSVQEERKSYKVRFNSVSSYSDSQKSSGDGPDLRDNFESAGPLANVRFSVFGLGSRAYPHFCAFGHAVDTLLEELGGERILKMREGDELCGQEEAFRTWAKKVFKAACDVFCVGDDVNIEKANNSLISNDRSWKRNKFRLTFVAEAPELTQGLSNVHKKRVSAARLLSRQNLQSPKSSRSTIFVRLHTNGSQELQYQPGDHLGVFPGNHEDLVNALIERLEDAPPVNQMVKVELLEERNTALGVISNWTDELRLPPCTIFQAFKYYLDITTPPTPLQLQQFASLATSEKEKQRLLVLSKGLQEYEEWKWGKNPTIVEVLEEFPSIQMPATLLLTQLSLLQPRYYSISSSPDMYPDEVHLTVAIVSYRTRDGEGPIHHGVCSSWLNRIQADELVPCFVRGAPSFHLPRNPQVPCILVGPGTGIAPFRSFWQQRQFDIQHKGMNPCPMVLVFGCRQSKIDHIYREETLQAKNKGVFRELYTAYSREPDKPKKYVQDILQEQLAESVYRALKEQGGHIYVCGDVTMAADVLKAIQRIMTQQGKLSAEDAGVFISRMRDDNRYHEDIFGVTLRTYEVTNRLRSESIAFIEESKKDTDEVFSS

Aortic ring [3] = experiment: Relaxation of phenyphrine-induced constriction in rat aortic rings; format: functional, tissue-based; conditions: Aorta
[4] = molecular target: Nitric oxide synthase 1 (Homo sapiens) (UniProt P29475); experiment: Activity of tetrahydrobiopterin free nNOS assessed as increase in NO in presence of NADPH and arginine at 1 to 200 uM

Activity [2]: inactive
Compound: CC(=O)C1=Nc2c(nc(N)[nH]c2=O)NC1(C)C
Activity (Aortic ring [1]): Active

Compound: C[C@H](O)[C@H](O)[C@H]1CNc2nc(N)[nH]c(=O)c2N1
Activity (Aortic ring [3]): inactive

Activity [4]: Active
Compound: CC(=O)C1Nc2c(nc(N)[nH]c2=O)NC1(C)C (centres undefined)
